Patent US20230072421A1, “TARGETED RADIOPHARMACEUTICALS FOR THE DIAGNOSIS AND TREATMENT OF PROSTATE CANCER” (Bayer AS, priority 2019, published 2023)

Columns and labels:
22Rv1 cells = assay: Cell proliferation assay (CellTiter-Glo, 5-day exposure), 22Rv1; assay type: cell-based; conditions: 22Rv1, 1000 cells/well, Th-227 labelled at 375 kBq/nmol, mean of 1 to 6 experiments
Experimental: (§1) Inhibition of cell proliferation of Thorium-227 labeled PMSA SMOL ligands was tested different prostate cancer cell lines, namely 22Rv1, VCaP, C4-2 (all from ATCC, Manassas, Va., USA) and LNCaP (DMSZ, Braunschweig). Cells were seeded using the following conditions in 384 well plates (Corning) in 30 μl of growth media at 4000 cells/well for VCaP cells and 1000 cells/well for 22Rv1, C4-2 and LNCaP cells.
(§2) Cells were cultivated an incubator at 37° C. and 5% C02 over night. […] In sister plates cell viability at treatment start (d=0) was determined using CellTiter-Glo® assay (CTG, Promega, Madison, Wis., USA), by adding 30 μl per well CTG solution, incubation for 10 min and reading of Luminescence in a PheraStarFSX instrument (BMG Labtech). After a 5-day exposure in the presenced of test compounds, cell viability of treated or untreated control cells was determined again using CellTiter-Glo® assay (Promega, Madison, Wis., USA). […] The DRC software is a Biobook Spreadsheet that was developed by Bayer AG and Bayer Business Services on the IDBS E-Workbook Suite platform (IDBS: ID Business Solutions Ltd., Guildford, UK).

C4-2 cells = assay: Cell proliferation assay (CellTiter-Glo, 5-day exposure), C4-2; assay type: cell-based; conditions: C4-2, 1000 cells/well, Th-227 labelled at 375 kBq/nmol, mean of 1 to 6 experiments
Experimental: as §1, §2

[1] = test system: LNCaP human prostate cancer cells; assay: LNCaP xenograft efficacy study (T/C tumor area); assay type: in vivo, SCID mice; conditions: Example IV; day 36 after start of therapy; once 1 MBq/kg
Experimental: SCID mice were randomly assigned to experimental groups, ten animals per group (efficacy) or n=3-5 per time point of biodistribution study. At the initiation of the study, a testosterone pellet was subcutaneously transplanted, the animals were shaved, tattooed and each cage was labeled with the cage number, study number and number of animals per cage.
LNCaP human prostate cancer cells were cultured as described according to the supplier's protocols. Cells were harvested for transplantation in a subconfluent (70%) state. Animals were injected with 5×10^6 LNCaP cells suspended in 100% Matrigel subcutaneously into the flank of the mice.
Efficacy study: When tumors reached a predetermined size in mice of 35-50 mm^2 animals were randomized into treatment and control groups (n=10 animals/group) and treatment with the defined radioactive dose was started. The i.v. application volume was 100 μl/mice.
Tumor response was assessed by determination of the tumor area (product of the longest diameter and its perpendicular) using a caliper. The animal body weight was monitored as a measure for treatment-related toxicity. Measurement of tumor area and body weight was performed two to three times weekly.
Animals were sacrificed when showing signs of toxicity (>20% body weight loss) or when tumors reached a size of approximately 200 mm^2.
Tumor growth inhibition is presented as T/C ratio (Treatment/Control) calculated with tumor areas when the vehicle control group had to be closed.

VCaP cells = assay: Cell proliferation assay (CellTiter-Glo, 5-day exposure), VCaP; assay type: cell-based; conditions: 4000 cells/well, Th-227 labelled at 375 kBq/nmol, mean of 1 to 6 experiments
Experimental: as §1, §2

SMILES | Proliferation assay on cancer cell lines by TTCs Default Pivot #3 IC50 [kBq/mL] 22Rv1 1000cells 375kBq/nmol (mean) (22Rv1 cells) [kBq/mL] | Proliferation assay on cancer cell lines by TTCs Default Pivot #3 IC50 [kBq/mL] C4-2 1000cells 375kBq/nmol (mean) (C4-2 cells) [kBq/mL] | T/Carea [1] | Proliferation assay on cancer cell lines by TTCs Default Pivot #3 IC50 [kBq/mL] VCap 4000cells 375kBq/nmol (mean) (VCaP cells) [kBq/mL]
Cc1cc(C(=O)NCCN(CCCN(CCNC(=O)c2cc(C)n(CC(=O)NCC3CCC(C(=O)NC(Cc4cnc5ccccc5c4)C(=O)NCCCCC(NC(=O)NC(CCC(=O)O)C(=O)O)C(=O)O)CC3)c(=O)c2[O-])CCNC(=O)c2cc(C)n(CC(=O)NCC3CCC(C(=O)NC(Cc4cnc5ccccc5c4)C(=O)NCCCCC(NC(=O)NC(CCC(=O)O)C(=O)O)C(=O)O)CC3)c(=O)c2[O-])CCNC(=O)c2cc(C)n(CC(=O)NCC3CCC(C(=O)NC(Cc4cnc5ccccc5c4)C(=O)NCCCCC(NC(=O)NC(CCC(=O)O)C(=O)O)C(=O)O)CC3)c(=O)c2[O-])c([O-])c(=O)n1CC(=O)O.[227Th+4] (stereo not shown) [Example 22-C trimer-227Th] | 0.84 | 1.82 | 0.64 | 2.62
Cc1cc(C(=O)NCCN(CCCN(CCNC(=O)c2cc(C)n(CC(=O)O)c(=O)c2[O-])CCNC(=O)c2cc(C)n(CC(=O)NCC3CCC(C(=O)NC(Cc4cnc5ccccc5c4)C(=O)NCCCCC(NC(=O)NC(CCC(=O)O)C(=O)O)C(=O)O)CC3)c(=O)c2[O-])CCNC(=O)c2cc(C)n(CC(=O)O)c(=O)c2[O-])c([O-])c(=O)n1CC(=O)O.[227Th+4] (stereo not shown) [Example 22-C monomer-227Th] | 0.72 | 0.43 | – | 2.01
Cc1cc(C(=O)NCCN(CCCN(CCNC(=O)c2cc(C)n(CC(=O)NCC3CCC(C(=O)NC(Cc4ccc5ccccc5c4)C(=O)NCCCCC(NC(=O)NC(CCC(=O)O)C(=O)O)C(=O)O)CC3)c(=O)c2[O-])CCNC(=O)c2cc(C)n(CC(=O)NCC3CCC(C(=O)NC(Cc4ccc5ccccc5c4)C(=O)NCCCCC(NC(=O)NC(CCC(=O)O)C(=O)O)C(=O)O)CC3)c(=O)c2[O-])CCNC(=O)c2cc(C)n(CC(=O)NCC3CCC(C(=O)NC(Cc4ccc5ccccc5c4)C(=O)NCCCCC(NC(=O)NC(CCC(=O)O)C(=O)O)C(=O)O)CC3)c(=O)c2[O-])c([O-])c(=O)n1CC(=O)O.[227Th+4] (stereo not shown) [1-C trimer-227Th] | 0.74 | 2.24 | – | 3.11
CNc1cc(CC(NC(=O)C2CCC(CNC(=O)Cn3c(C)cc(C(=O)NCCN(CCCN(CCNC(=O)c4cc(C)n(CC(=O)O)c(=O)c4[O-])CCNC(=O)c4cc(C)n(CC(=O)NCC5CCC(C(=O)NC(Cc6cc(NC)c7ccccc7c6)C(=O)NCCCCC(NC(=O)NC(CCC(=O)O)C(=O)O)C(=O)O)CC5)c(=O)c4[O-])CCNC(=O)c4cc(C)n(CC(=O)O)c(=O)c4[O-])c([O-])c3=O)CC2)C(=O)NCCCCC(NC(=O)NC(CCC(=O)O)C(=O)O)C(=O)O)cc2ccccc12.[227Th+4] (stereo not shown) [37-C dimer-227Th] | 1.06 | 0.48 | – | 1.53
O=C([O-])CN1CCN(CC(=O)[O-])CCN(CC(=O)Nc2ccc(-c3ccn(CC(=O)N[C@@H](Cc4ccc5ccccc5c4)C(=O)NCCCC[C@H](NC(=O)N[C@@H](CCC(=O)O)C(=O)O)C(=O)O)n3)cc2)CCN(CC(=O)[O-])CC1.[227Th+4] [Example 28-B-227Th, [^227Th]Thorium (4S,11S,15S)-4-[(naphthalen-2-yl)methyl]-2,5,13-trioxo-1-{3-[4-(2-{4,7,10-tris[(carboxy-kappaO)methyl]-1,4,7,10-tetraazacyclododecan-1-yl-kappa^4N^1,N^4,N^7,N^10}acetamido)phenyl]-1H-pyrazol-1-yl}-3,6,12,14-tetraazaheptadecane-11,15,17-tricarboxylate] | 1.22 | 2.22 | – | 4.77
